From US20160295854A1, “COMPOSITION AND METHOD FOR EX-VIVO IMMUNOMODULATION AND/OR PRESERVATION OF ORGANS, METHODS AND USE” (UNIAO BRASILEIRA DE EDUCACAO E ASSISTENCIA , MANTENEDORA DA …, priority 2014, published 2016)

Assays:
MARCH-I = MARCH-I mRNA in DCs by real time PCR; assay type: cell-based, mice (Mus musculus)
Method: The supernatants were collected and used for analyzing cytokine. The cells were further treated with 20 ng/ml of Rapamycin (Cell Signaling), 1 μg/ml of Cyclosporine A (Roche) or 20 ng/ml of IL-10 recombinant murine (R&D System) for 24 h and the total RNA was removed.
The total RNA was isolated from the DCs treated using the kit RNAeasy (Qiagen), according to the manufacturer instructions. The total purified RNA concentration was determined with the kit Qubit® RNA Assay Kit (Invitrogen), read in the Qubit® Fluorometer (Invitrogen). 50 ng of the RNA had reverse transcriptase with 100 U of Sensiscript (Qiagen). DNA concentrations were determined with the kit Qubit® dsDNA HS Assay (Invitrogen), read in the Qubit® Fluorometer (Invitrogen). In a final volume of 10 μL, 8 ng of cDNA were applied using some assays Taqman® Gene Expression (Applied Biosystems): IL10 (Mm00439614_m1), March1 (Mm00613524_m1) and β-actin (4352933E), according to the manufacturer recommendations.
The quantitative real time PCR was performed in the instrument StepOne™ Real-Time PCR System (Applied Biosystems). The relative levels of mRNA were calculated according to the comparative method of Ct, described by […] & LIVAK (2008). The β-actin constituent gene was used as setter. Non-treated DCs served as reference for OVA or Hsp70-treated DCs.
After that, IL-10 mRNA levels were analyzed by Real-time PCR. The β-actin was used as a setter. The IL-10 concentration was measured in the cultures supernatant by flow cytometry. […] (C) As in A, however the MARCH-I mRNA levels were analyzed by Real-time PCR. […] DCs IL-10 KO were also treated with Recombinant IL-10. All treatments were performed for 24 h and MARCH-I mRNA levels were analyzed by Real-time PCR. […] After this period, grafts were sutured in the BALB/c animals' back and the acceptance was daily monitored. Graphs expressed on average ±SEM. *, p<0.05; **, p<0.01; ***, […]. n=3-5 mice per group. Representative results of 3 independent experiments.
After this period, the MARCH-I expression increase was analyzed by Real-time PCR.

IL-10 = IL-10 production by DCs (real time PCR and CBA); assay type: cell-based, mice (Mus musculus)
[1] = test system: cutaneous allograft (B6 donor skin in BALB/c recipients); assay: Cutaneous allograft model, graft immersion followed by topic application; assay type: in vivo, mice (Mus musculus)
Source text: That is, animals that received grafts treated with Hsp70 receive the local application of a Hsp70 solution and the same for OVA.
After this, the grafts were sutured in BALB/c (I-A^d) animals' back. […] The animals were daily monitored. (A) Schematic representation of the treatment strategy used in the experiment. (B) Photographic record of the clinical progression of the acute rejection in groups Hsp70 and OVA. […] Data achieved from previous experiments.

ERK = assay: p-ERK intracellular marking in BMDCs; assay type: cell-based, mice (Mus musculus)
[2] = test system: CD4+ and CD8+ T cells in recipient DLN; assay: Recipient responses in DLN (cell count, Ki67 proliferation, Tregs); assay type: in vivo, mice (Mus musculus)
Method: Cells of the donor mice (I-A^b+ or GFP+) were detected in the axillary lymph nodes of the recipients, 24 h or 96 h after the transplantation by flow cytometry. The transplanted mice were sacrificed, the axillary lymph nodes were removed and macerated in a nylon screen with a mean that had D Collagenase (Roche®). We achieved a cell suspension that had the cells in contact with Tripan blue and analyzed by flow cytometry.
For analyzing the recipients T cells, the cells were marked for CD4 (GK1.5), CD8a (53-6.7), Foxp3 (MF23), Ki67 (B56) achieved from BD Biosciences. The specific transcription factor marking of Tregs Foxp3 was performed using the kit Mouse Foxp3 Buffer Set (BD Biosciences), according to the manufacturer instructions. The levels of phosphorylated ERK and STAT3 were determined using antibodies for p-ERK1/2 and p-STAT3 (BD Biosciences) in BMDCs previously fixed and permeablized. The cells were subsequently analyzed in the flow cytometer FACSCanto II (BD Biosciences) with the BD FACSDiva (BD Biosciences) program. The data achieved were analyzed with the Flowjo program (version 7.6.5, Tree Star).
When analyzed the median responses in the Recipients' DLNs, it was noted, for inventors surprise, which animals that received grafts treated with OVA presented organs in a greater size when compared with animals that received grafts treated with Hsp70.
For analyzing this hypothesis, the proliferation of these cells was analyzed by marking with Ki67 in the transplanted animals DLN. Ki67 is a molecule having a role in the cellular cycle and is expressed by any organism cell that is proliferating. […] An increase in the number of regulating T cells (Tregs) may reduce the alloreactive T cells proliferation in the recipient DLN, delaying the rejection to grafts. […] These findings are in accordance with the observation that immature DCs administration in human leads to an inhibition of the CD8+ T cells effector functions.
FIG. 7. […]

MHC II = MHC II expression in LPS-activated BMDCs; assay type: cell-based, mice (Mus musculus); details: BMDCs treated or not with LPS 24 h, then treated or not with Hsp70 for additional 24 h
CD86 = assay type: cell-based, mice (Mus musculus); details: BMDCs treated or not with LPS 24 h, then treated or not with Hsp70 for additional 24 h

## Hsp70: recombinant Mycobacterium tuberculosis Hsp70 (DnaK) produced in Escherichia coli BL21, LPS removed
MARCH-I; DCs from IL-10 knockout animals, 24 h, compared with DCs WT
  MARCH-I mRNA levels in DCs IL-10 KO (FIG. 11 D): did not present an increase
MARCH-I; DCs isolated from LNs, 24 h
  increase in the MARCH-I mRNA (FIG. 11 C): 20 times
MARCH-I; lymph node DCs, 24 hours, Hsp70 30 μg/mL, Rapamycin 20 ng/ml, Cyclosporine A 1 μg/ml, IL-10 20 ng/ml
  MARCH-I induction on DCs regarding the basal medium (FIG. 24): only treatment able to induce MARCH-I
IL-10; DCs isolated from mice lymph nodes, 24 h
  IL-10 production, mRNA and protein level (FIG. 11 A): induce the IL-10 production
IL-10; TLR2 KO compared with DCs WT
  IL-10 mRNA and protein in DCs TLR2 KO (FIG. 12 A, B): significant reduction of the mRNA expression
[1]; compared to animals treated with OVA
  graft survival, immersion plus topic application until day 7 (FIG. 18): much bigger
[1]; group '- 1 day'
  Survival median: 17.0 days
ERK; 30 μg/ml, after 15 minutes of stimulus, WT
  p-ERK levels in BMDCs (FIG. 13 A): increase in the phosphor ERK levels
ERK; TLR2 KO BMDCs, 15 minutes
  p-ERK levels in TLR2 KO BMDCs (FIG. 13 B): increase was not noted
[2]; days 1, 4, 7 and 10 after transplantation, vs OVA
  total of cells of the Recipients' DLNs (FIG. 7 A): lower absolute number of cells
[2]; graft treated by immersion
  CD4+ and CD8+ T cells proliferation (Ki67) in recipient DLN (FIG. 7 B, C): reduction marked
  Tregs in the recipient DLN (FIG. 7 D): not detected a significant increase
MHC II
  percentage of CD11c+ I-Ab^hi cells (FIG. 4): revert partially
CD86
  percentage of CD11c+ CD86^hi cells (FIG. 5): revert partially
